Target: hMC4R (Homo sapiens (Human), UniProt P32245)
Assay: In vitro binding affinity assay using hMC4R (radioligand competition binding, CHO cell membranes)
Settings: competition with [125I]-(Nle4, D-Phe7)-α-MSH 0.5 nM; Ki from IC50 by Cheng-Prusoff; read-out: Ki (nM) geometric mean
Experimental: The binding affinity of test compounds at the α-melanocyte-stimulating hormone receptor (hMC4R) was assessed using a radioligand competition binding assay. Recombinant Chinese hamster ovaries (CHO) cells stably expressing hMC4R (PerkinElmer #ES-191-C) were used for competitive binding. hMC4R membranes were grown in Dulbecco's Modified Essential Medium and Ham's F-12 Medium (DMEM/F12), 10% heat inactivated fetal bovine serum (FBS), 0.4 mg/mL Geneticin and 2 mM L-glutamine. Cell membranes were bulked and frozen until the assay was performed.
Compounds were solubilized in 100% dimethyl sulfoxide (DMSO) to a concentration of 30 mM. A 10-point intermediate dilution series using half log dilutions was created in 100% DMSO with a top concentration of 0.03 mM. The serially diluted compounds were spotted as 1 μL/well, in 96-well Costar 3363 plates. The final compound range in the assay was 300 nM to 0.01 nM with a final DMSO concentration of 1%. Control wells, containing 1 μL of 2 mM ([…]) alpha-melanocyte stimulating hormone (α-MSH-Tocris #2584) was added to the non-specific binding wells and 1 μL 100% DMSO for the total binding control wells. This was followed by the addition of 80 μL of assay buffer [25 mM HEPES, 5 mM MgCl2, 2.5 mM CaCl2, 150 mM NaCl, Complete EDTA-free Protease Inhibitor Tablet (Thermo Scientific #11873580001) and 0.25% BSA]. […] The exact concentration of radioligand used for each experiment was determined by liquid scintillation counting and adjusted if necessary.
Frozen hMC4R cell membranes were thawed and Dounce homogenized. Homogenates were resuspended in assay buffer to a concentration of 2 μg per well. […] The plates were incubated for 2 hours at room temperature. Assay samples were then rapidly filtered through Unifilter-96 GF/B PEI coated filter plates using a filter plate harvester (PerkinElmer) and rinsed with ice-cold wash buffer [25 mM (4-(2-hydroxyethyl)-1-piperazineethanesulfonic acid (HEPES), 1 mM MgCl2, 2.5 mM CaCl2, and 500 mM NaCl]. Filter plates were dried overnight at room temperature. Plates were then bottom-sealed prior to the addition of 50 μL/well Ultima Gold XR scintillation fluid (PerkinElmer 6013111). Plates were then top-sealed, incubated for 60 minutes at room temperature and then the amount of radioactivity present was determined by liquid scintillation counting on a Microbeta Trilux (PerkinElmer #2450-0060).
The raw data (expressed as counts per minute) were analyzed using ActivityBase (IDBS Data Management Software). […] Equilibrium dissociation constant for inhibitor of ligand and receptor interaction (Ki) values were then calculated from the IC50 values using the Cheng-Prusoff equation: Ki=IC50/(1+([L]/Kd)), where [L] is the concentration of the radioligand used in the experiment and Kd is the affinity of the radioligand (determined in separate saturation experiments).

hMC4R, sequence (P32245 whole entry): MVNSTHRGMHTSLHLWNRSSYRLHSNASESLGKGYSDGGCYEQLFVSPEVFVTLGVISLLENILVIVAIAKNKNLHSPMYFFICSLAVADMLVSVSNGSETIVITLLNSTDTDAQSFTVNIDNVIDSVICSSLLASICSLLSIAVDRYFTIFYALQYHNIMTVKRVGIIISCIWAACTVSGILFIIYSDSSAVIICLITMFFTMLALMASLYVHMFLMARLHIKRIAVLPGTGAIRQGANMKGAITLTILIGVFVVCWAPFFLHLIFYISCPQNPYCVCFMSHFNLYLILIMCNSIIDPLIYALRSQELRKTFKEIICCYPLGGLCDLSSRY

| Compound | Ki |
| --- | --- |
| Cc1nc(N[C@H]2CCN(C(=O)C(F)(F)c3ccc(Cl)c(Cl)c3)C2)ccc1-c1cn(C)c(C(F)F)n1 [Example 34, 2-(3,4-dichlorophenyl)-1-[(3S)-3-({5-[2-(difluoromethyl)-1-methyl-1H-imidazol-4-yl]-6-methylpyridin-2-yl}amino)pyrrolidin-1-yl]-2,2-difluoroethan-1-one] | 0.88 nM |
| Cc1nc(N[C@H]2CCN(C(=O)Cc3ccc(F)cc3)C2)ccc1-c1cc(C)n(C)n1 [Example 32, 1-[(3S)-3-{[5-(1,5-dimethyl-1H-pyrazol-3-yl)-6-methylpyridin-2-yl]amino}pyrrolidin-1-yl]-2-(4-fluorophenyl)ethan-1-one] | 5.5 nM |
| Cc1ccccc1[C@@H](C)C(=O)N1CC[C@H](Nc2ccc(-c3cn(C)c(C(C)(F)F)n3)c(C)n2)C1 (single isomer, unassigned) [Example 15B] | 0.83 nM |
| Cc1nc(N[C@H]2CCN(C(=O)Cc3ccc(F)cc3)C2)ccc1-c1noc(C(F)(F)F)n1 [Example 27, 2-(4-fluorophenyl)-1-[(3S)-3-({6-methyl-5-[5-(trifluoromethyl)-1,2,4-oxadiazol-3-yl]pyridin-2-yl}amino)pyrrolidin-1-yl]ethan-1-one] | 950 nM |
| Cc1nc(N[C@H]2CCN(C(=O)C3(c4ccccc4)CC3(F)F)C2)ccc1-c1cn(C)cn1 (stereo partly drawn) [Example 35, (2,2-difluoro-1-phenylcyclopropyl)[(3S)-3-{[6-methyl-5-(1-methyl-1H-imidazol-4-yl)pyridin-2-yl]amino}pyrrolidin-1-yl]methanone] | 0.95 nM |
| Cc1nc(N[C@H]2CCN(C(=O)Cc3ccc(F)cc3)C2)ccc1-c1nc2n(n1)CC(F)(F)CO2 [Example 29, 1-[(3S)-3-{[5-(6,6-difluoro-6,7-dihydro-5H-[1,2,4]triazolo[5,1-b][1,3]oxazin-2-yl)-6-methylpyridin-2-yl]amino}pyrrolidin-1-yl]-2-(4-fluorophenyl)ethan-1-one] | 6.9 nM |
| Cc1nc(N[C@H]2CCN(C(=O)C(F)(F)c3ccc(Cl)cc3)C2)ccc1-c1cn(C)c(C(F)F)n1 [Example 23, 2-(4-chlorophenyl)-1-[(3S)-3-({5-[2-(difluoromethyl)-1-methyl-1H-imidazol-4-yl]-6-methylpyridin-2-yl}amino)pyrrolidin-1-yl]-2,2-difluoroethan-1-one] | 1.1 nM |
| Cc1nc(N[C@H]2CCN(C(=O)Cc3ccc(OC(F)(F)F)cc3)C2)ccc1-c1cn(C)c(C(F)F)n1 [Example 9, 1-[(3S)-3-({5-[2-(difluoromethyl)-1-methyl-1H-imidazol-4-yl]-6-methylpyridin-2-yl}amino)pyrrolidin-1-yl]-2-[4-(trifluoromethoxy)phenyl]ethan-1-one] | 0.46 nM |
| Cc1nc(N[C@H]2CCN(C(=O)[C@H](C)c3ccccc3)C2)ccc1-c1cn(C)c(C(F)F)n1 [Example 11, (2R)-1-[(3S)-3-({5-[2-(difluoromethyl)-1-methyl-1H-imidazol-4-yl]-6-methylpyridin-2-yl}amino)pyrrolidin-1-yl]-2-phenylpropan-1-one] | 1.1 nM |
| COc1ccc(C)c([C@@H](C)C(=O)N2CC[C@H](Nc3ccc(-c4cn(C)cn4)c(C)n3)C2)c1 (single isomer, unassigned) [Example 20A] | 1100 nM |
| Cc1nc(N[C@H]2CCN(C(=O)Cc3ccc(F)c(F)c3)C2)ccc1-c1cn(C)c(C(F)F)n1 [Example 10, 1-[(3S)-3-({5-[2-(difluoromethyl)-1-methyl-1H-imidazol-4-yl]-6-methylpyridin-2-yl}amino)pyrrolidin-1-yl]-2-(3,4-difluorophenyl)ethan-1-one] | 0.31 nM |
| Cc1nc(N[C@@H]2CCN(C(=O)Cc3ccc(F)cc3)C2(C)C)ccc1-c1cn(C)cn1 [Example 3A, 1-[(3R)-2,2-dimethyl-3-{[6-methyl-5-(1-methyl-1H-imidazol-4-yl)pyridin-2-yl]amino}pyrrolidin-1-yl]-2-(4-fluorophenyl)ethan-1-one] | 520 nM |
| Cc1ccccc1[C@@H](C)C(=O)N1CC[C@H](Nc2ccc(-c3cn(C)c(C(C)(F)F)n3)c(C)n2)C1 (single isomer, unassigned) [Example 15A] | 150 nM |
| COc1cc(CC(=O)N2CC[C@H](Nc3ccc(-c4cn(C)cn4)c(C)n3)C2)ccc1C [Example 31, 2-(3-methoxy-4-methylphenyl)-1-[(3S)-3-{[6-methyl-5-(1-methyl-1H-imidazol-4-yl)pyridin-2-yl]amino}pyrrolidin-1-yl]ethan-1-one] | 1 nM |
| COc1cccc([C@@H](C)C(=O)N2CC[C@H](Nc3ccc(-c4cn(C)c(C(C)(F)F)n4)c(C)n3)C2)c1 (single isomer, unassigned) [Example 14A] | 530 nM |

Other lines, results leading:

| Ki | Compound |
| --- | --- |
| 20 nM | COc1cc([C@@H](C)C(=O)N2CC[C@H](Nc3ccc(-c4nc(C(F)F)n(C)n4)c(C)n3)C2)c(Cl)cn1 (single isomer, unassigned) [Example 24A] |
| 190 nM | COc1cc([C@@H](C)C(=O)N2CC[C@H](Nc3ccc(-c4cn(C)c(C(C)(F)F)n4)c(C)n3)C2)c(F)cn1 (single isomer, unassigned) [Example 21A] |
| 240 nM | COc1cc([C@@H](C)C(=O)N2CC[C@H](Nc3ccc(-c4nc(C(F)F)n(C)n4)c(C)n3)C2)nc(C)n1 (single isomer, unassigned) [Example 41A] |
| > 220 nM | COc1cc([C@@H](C)C(=O)N2CC[C@H](Nc3ccc(-c4cn(C)c(C(C)(F)F)n4)c(C)n3)C2)c(C)cn1 (single isomer, unassigned) [Example 16A] |
| 150 nM | COc1cc([C@@H](C)C(=O)N2CC[C@H](Nc3ccc(-c4nc(C(C)(F)F)n(C)n4)c(C)n3)C2)c(Cl)cn1 (single isomer, unassigned) [Example 37A] |
| 54 nM | COc1cc(OC(F)F)cc([C@@H](C)C(=O)N2CC[C@H](Nc3ccc(-c4nc(C(C)(F)F)n(C)n4)c(C)n3)C2)c1 (single isomer, unassigned) [Example 40A] |
| 7.7 nM | COc1cc([C@@H](C)C(=O)N2CC[C@H](Nc3ccc(-c4cn(C)c(C(F)F)n4)c(C)n3)C2)cc(OC)n1 (single isomer, unassigned) [Example 12B] |
| 1100 nM | COc1cc([C@@H](C)C(=O)N2CC[C@H](Nc3ccc(-c4nc(C(F)F)n(C)n4)c(C)n3)C2)ccn1 (single isomer, unassigned) [Example 33A] |
| 4.3 nM | COc1cc([C@](C)(F)C(=O)N2CC[C@H](Nc3ccc(-c4cn(C)c(C(F)F)n4)c(C)n3)C2)ccn1 (single isomer, unassigned) [Example 36B] |
| 62 nM | COc1cc([C@@H](C)C(=O)N2CC[C@H](Nc3ccc(-c4cn(C)c(C(F)F)n4)c(C)n3)C2)c(F)cn1 (single isomer, unassigned) [Example 38A] |
| 88 nM | COc1cc([C@@H](C)C(=O)N2CC[C@H](Nc3ccc(-c4nc(C(F)(F)F)n(C)n4)c(C)n3)C2)c(Cl)cn1 (single isomer, unassigned) [Example 25A] |

Reference: patent US20250129048A1, “MELANOCORTIN 4 RECEPTOR ANTAGONISTS AND USES THEREOF” (Pfizer Inc., priority 2021, published 2025)
